Measurements reported in ChEMBL document CHEMBL3853285, “Naturally Occurring Carbazole Alkaloids from Murraya koenigii as Potential Antidiabetic Agents” (J Nat Prod, 2016).
Calls of active or inactive are those of the source. No cut-off for these calls is given here.

How the values were obtained:
[1] = Activation of Akt-dependent signalling pathway in rat L6 myotubes assessed as increase in insulin-stimulated myc-tagged GLUT4-mediated 2-[3H]-deoxyglucose uptake at 25 uM incubated for 16 hrs followed by insulin stimulation for 20 mins measured for 5 mins by beta scintillation counting method relative to control
[2] = Activation of Akt-dependent signalling pathway in rat L6 myotubes assessed as increase in myc-tagged GLUT4-mediated 2-[3H]-deoxyglucose uptake incubated for 16 hrs measured for 5 mins by beta scintillation counting
[3] = Activation of Akt-dependent signalling pathway in rat L6 myotubes assessed as induction of myc-tagged GLUT4 translocation to cell surface at 10 uM incubated for 16 hrs by O-phenylenediamide based colorimetric assay relative to control
[4] = Activation of Akt-dependent signaling pathway in rat L6 myotubes assessed as increase in myc-tagged GLUT4-mediated 2-[3H]-deoxyglucose uptake at 10 uM incubated for 16 hrs measured for 5 mins by beta scintillation counting method relative to control
Rattus norvegicus [5] = test: Antidiabetic activity in overnight fasted STZ-induced albino Sprague-Dawley rat diabetic model assessed as decrease in blood glucose level at 100 mg/kg, po measured up to 5 hrs; type: functional
Rattus norvegicus [6] = test: Antidiabetic activity in overnight fasted STZ-induced albino Sprague-Dawley rat diabetic model assessed as decrease in blood glucose level at 100 mg/kg, po measured up to 24 hrs; type: functional
[7] = Activation of Akt-dependent signalling pathway in rat L6 myotubes assessed as induction of myc-tagged GLUT4 translocation to cell surface at 25 uM incubated for 16 hrs by O-phenylenediamide based colorimetric assay relative to control
[8] = Half life in rat liver microsomes in presence of NADPH by HPLC analysis; type: ADME; conditions: for half-life: liver microsomes
[9] = Activation of Akt-dependent signalling pathway in rat L6 myotubes assessed as increase in myc-tagged GLUT4-mediated 2-[3H]-deoxyglucose uptake at 25 uM incubated for 16 hrs measured for 5 mins by beta scintillation counting relative to control
[10] = Metabolic stability in rat liver microsomes assessed as parent compound remaining after 90 mins in presence of NADPH by HPLC analysis; type: ADME; conditions: for remaining at 1.5 h: liver microsomes, read-out: Stability
[11] = Metabolic stability in rat liver microsomes assessed as drug degradation rate constant incubated for 90 mins by HPLC analysis; type: ADME; conditions: 1.5 h
Mus musculus [12] = test: Antidiabetic activity in overnight fasted leptin receptor deficient db/db C57BL/KSJ mouse assessed as reduction in postprandial blood glucose AUC at 10 mg/kg, po administered on day 15 post glucose challenge measured up to 120 mins by oral glucose tolerance test relative to control; type: functional
Mus musculus [13] = test: Antidiabetic activity in overnight fasted leptin receptor deficient db/db C57BL/KSJ mouse assessed as reduction in postprandial blood glucose AUC at 10 mg/kg, po administered on day 10 post glucose challenge measured up to 120 mins by oral glucose tolerance test relative to control; type: functional
Mus musculus [14] = test: Antidiabetic activity in leptin receptor deficient db/db C57BL/KSJ mouse assessed as decrease in postprandial blood glucose level at 10 mg/kg, po for 15 consecutive days measured on day 7 to 14 post dose; type: functional, organism-based
Mus musculus [15] = test: Reversal of insulin resistance in leptin receptor deficient db/db C57BL/KSJ mouse assessed as improvement in HOMA index administered for 15 consecutive days relative to control; type: functional
Mus musculus [16] = test: Reversal of insulin resistance in leptin receptor deficient db/db C57BL/KSJ mouse assessed as decrease in serum insulin level administered for 15 consecutive days relative to control; type: functional
Mus musculus [17] = test: Antidiabetic activity in leptin receptor deficient db/db C57BL/KSJ mouse assessed as decrease in fasting blood glucose level administered for 15 consecutive days relative to control; type: functional
[18] = Cmax in Sprague-Dawley rat plasma at 100 mg/kg, po administered as single dose measured up to 48 hrs post dose by LC-MS/MS analysis; type: ADME, organism-based; set-up: dose 100 mg/kg, route oral
[19] = Tmax in Sprague-Dawley rat plasma at 100 mg/kg, po administered as single dose by LC-MS/MS analysis; type: ADME, organism-based
[20] = AUC (0 to infinity) in Sprague-Dawley rat plasma at 100 mg/kg, po administered as single dose measured up to 48 hrs post dose by LC-MS/MS analysis; type: ADME, organism-based; set-up: dose 100 mg/kg, route oral, time infinity
Mus musculus [21] = test: Antidiabetic activity in overnight fasted leptin receptor deficient db/db C57BL/KSJ mouse assessed as reduction in postprandial blood glucose AUC at 30 mg/kg, po administered on day 15 post glucose challenge measured up to 120 mins by oral glucose tolerance test relative to control; type: functional
Rattus norvegicus [22] = species on record: Rattus norvegicus; test: Induction of Akt phosphorylation at Ser-473 residue in rat L6 myotubes over-expressing myc-tagged GLUT4 at 25 uM incubated for 16 hrs by Western blot analysis
Mus musculus [23] = test: Antidiabetic activity in overnight fasted leptin receptor deficient db/db C57BL/KSJ mouse assessed as reduction in postprandial blood glucose AUC at 30 mg/kg, po administered on day 10 post glucose challenge measured up to 120 mins by oral glucose tolerance test relative to control; type: functional
Mus musculus [24] = test: Antidiabetic activity in leptin receptor deficient db/db C57BL/KSJ mouse assessed as decrease in postprandial blood glucose level at 30 mg/kg, po for 15 consecutive days measured on day 8 post dose; type: functional, organism-based
Rattus norvegicus [25] = species on record: Rattus norvegicus; test: Induction of Akt phosphorylation at Ser-473 residue in rat L6 myotubes over-expressing myc-tagged GLUT4 at 50 uM incubated for 16 hrs followed by insulin stimulation for 20 mins by Western blot analysis

Row | Compound | fold change (FC) [1] | Activity [2] | fold change (FC) [7] | half-life [8] [h] | fold change (FC) [9] | remaining at 1.5 h [10] [%] | K [11] [min⁻¹] | inhibition in vivo at 100 mg/kg (Rattus norvegicus [5]) [%] | inhibition in vivo at 100 mg/kg (Rattus norvegicus [6]) [%] | other results
1 | CN(C)C(=N)NC(=N)N [METFORMIN] | – | – | – | – | – | – | – | 25.9 | 36 | –
2 | CCc1ccc(CCOc2ccc(CC3SC(=O)NC3=O)cc2)nc1 (configuration not stated) [PIOGLITAZONE] | – | – | – | – | – | – | – | – | – | inhibition in vivo at 10 mg/kg (Mus musculus [12]): 41.4%; inhibition in vivo at 10 mg/kg (Mus musculus [13]): 30.2%; inhibition (Mus musculus [14]): Active; Activity (Mus musculus [15]): 74.6%; inhibition (INH) (Mus musculus [16]): 32.3%; inhibition (INH) (Mus musculus [17]): 62.4%
3 | CC(C)=CCC[C@]1(C)C=Cc2c(c(C)cc3c2[nH]c2ccccc23)O1 | 2.68 | Dose-dependent effect | 1.41 | – | 1.26 | – | 0.088 | 19.3 | 23.3 | t1/2 ([8]; microsomes): 7.8 min; Stability ([10]; microsomes, 1.5 h): 61%

The next lines start with results.

Row | fold change (FC) [1] | Activity [2] | fold change (FC) [7] | half-life [8] [h] | fold change (FC) [9] | remaining at 1.5 h [10] [%] | K [11] [min⁻¹] | Compound | inhibition in vivo at 100 mg/kg (Rattus norvegicus [5]) [%] | inhibition in vivo at 100 mg/kg (Rattus norvegicus [6]) [%] | other results
4 | 2.75 | Dose-dependent effect | – | – | – | – | – | CN(CCOc1ccc(CC2SC(=O)NC2=O)cc1)c1ccccn1 (configuration not stated) | – | – | fold change (FC) [3]: 1.38; fold change (FC) [4]: 1.45
5 | 2.7 | Dose-dependent effect | 1.33 | 2.83 | 1.34 | 67 | 0.004 | COc1ccc2c(c1)[nH]c1c3c(c(C)cc12)OC(C)(C)C=C3 | 24.6 | 30.3 | –
6 | 2.54 | Dose-dependent effect | 1.44 | 2.21 | 1.41 | 58 | 0.005 | COc1ccc2[nH]c3c4c(c(C)cc3c2c1)OC(C)(C)C=C4 [KOENIMBINE] | 15.5 | 19.8 | Cmax [18]: 1810 nM; Tmax [19]: 0.83 h; AUC(0-inf) [20]: 9.45 µM·h
7 | 2.41 | Dose-dependent effect | 1.29 | 3.11 | 1.42 | 79 | 0.003 | COc1cc2[nH]c3c4c(c(C)cc3c2cc1OC)OC(C)(C)C=C4 | 22.5 | 30 | inhibition in vivo at 30 mg/kg (Mus musculus [21]): 28.5%; Cmax [18]: 2820 nM; Tmax [19]: 4 h; Activity (Rattus norvegicus [22]): Active; inhibition in vivo at 30 mg/kg (Mus musculus [23]): 21.8%; Activity (Mus musculus [15]): 44.3%; inhibition (Mus musculus [24]): Active; inhibition (INH) (Mus musculus [16]): 17.2%; Activity (Rattus norvegicus [25]): Active; AUC(0-inf) [20]: 23 µM·h; inhibition (INH) (Mus musculus [17]): 40.5%
